The conditions of data set [1]: 6 hours after tail vein injection; 100 μg microvesicles or 30 μg doxorubicin.
Method: After cultivation for 10 days, PBS, PBS containing 100 μg of the extruded microvesicles (doxorubicin-microvesicle), or PBS containing 30 μg of doxorubicin was injected at a dose of 100 μl into mice via the tail vein.
Six hours after the injection, cancer tissue, the spleen and the heart were excised from the mice and fixed for 24 hours in 4% paraformaldehyde. For dehydration, the fixed tissues were immersed once in 70% ethanol, four times in 95% ethanol, three times in 100% ethanol, and three times in 100% xylene, each time for one hour in all cases. Thereafter, the tissues were embedded in paraffin, cut into sections 4 μm thick, and attached onto slide glass. The paraffin was melted by incubation at 60° C. for one hour. For hydration, the tissues were immersed three times in 100% xylene, four times in 100% ethanol, and three times in 95% ethanol, each time for one min in all cases, followed by storage for 5 min in flowing water.
After the hydration, the tissues were subjected to immunohistochemistry to examine whether doxorubicin was delivered to each tissue. In this regard, antigen retrieval was performed using a microwave method. The tissues were placed in 10 mM sodium citrate buffer and irradiated three times, each for five min, with microwaves. The tissues were cooled in flowing water and blocked for 2 hours with TBS containing 5% horse serum and 0.02% Triton X-100. […]
For a further data set, the system named is Mouse colon 26 cell line. The experiment in a line: Growth of colon 26 cancer tissue, comparison with doxorubicin (Example 21). In kind it is in vivo, mice.
Data set [2] is described as follows: White blood cell count in blood of treated mice. The conditions noted are these: 60 μg of doxorubicin daily. Format: in vivo. On the procedure: Mice were anesthetized by abdominal injection of 150 μL of an anesthetic comprising a mixture of 1:3:6 ketamine:rumpon:PBS, and blood samples were taken from the heart and placed in tubes containing an anti-coagulant agent. A mixture of 10 μL of blood and 90 μL of 1% HCl was stored at room temperature for 7 min, and after 10 μL of the mixture was put into a hematocytometer, and white cells were counted.

Method for Mouse colon 26 cell line: The mouse colon 26 cell line used in Example 18 was subcutaneously injected at a dose of 1×10^6 cells into mice and cultured for 5 days.
After cultivation for 5 days, PBS, PBS containing 10 μg of the extruded microvesicles loaded with 3 μg of doxorubicin (doxorubicin-microvesicle), or PBS containing 3, 15 or 60 μg of doxorubicin was injected at a dose of 100 μl once every day via the tail vein into mouse groups, each consisting of 5. The volume of cancer tissue was monitored once every two days. The tumor volume was calculated by the equation v=1s^2/2 wherein (1) is a length of the longest axis of a tumor and (s) is a length of the axis perpendicular to the longest axis.

On to `COc1cccc2c1C(=O)c1c(O)c3c(c(O)c1C2=O)C[C@@](O)(C(=O)CO)C[C@@H]3O[C@H]1C[C@H](N)[C@H](O)[C@H](C)O1` [doxorubicin], for which, in data set [1], the “doxorubicin delivered to the heart” value was “delivered in a large amount to the heart” and the “doxorubicin in cancer blood vessels” value is “cannot by itself be delivered”. For the same compound, the “equi-effective doxorubicin dose relative to the load of doxorubicin on the microvesicles” value with Mouse colon 26 cell line (60 μg versus 3 μg load) worked out at 20 fold. Also, in the data set with Mouse colon 26 cell line (daily tail vein injection, colon 26 tumor), the “dose of doxorubicin alone with the same therapeutic effect as the doxorubicin-loaded microvesicles” value worked out at 60 µg. For the same compound, in data set [2], the “reduction of white blood cell count compared to the control” value is “at least 50%”.

Values taken from US10675244B2, “Microvesicles derived from nucleated, mammalian cells and use thereof” (MDIMUNE INC., priority 2009, dated 2020).
